Experimental data as given in ChEMBL document CHEMBL5321252, “A FOXC2 inhibitor, MC-1-F2, as a therapeutic candidate for targeting EMT in castration-resistant prostate cancer” (Bioorg Med Chem Lett, 2023).
Blank lines part the entries; values can stand above or below the compound they belong to. Calls of active or inactive are those of the source. No cut-off for these calls is given here.

Tests used:
PC-3 [1] = test: Synergistic antiproliferative activity against human PC-3 cells assessed as combination index incubated for 24 hrs in the presence of enzalutamide by MTT assay; format: functional
PC-3 [2] = test: Inhibition of epithelial mesenchymal transition in human PC-3 cells assessed as downregulation of Slug protein expression at 20 uM incubated for 48 hrs by Western blot analysis; format: functional, cell-based
[3] = target: T1, Forkhead box protein C2 (Homo sapiens) (UniProt Q99958); test: Induction of FOXC2 degradation in human PC-3 cells assessed as decrease in FOXC2 protein level at 20 uM incubated for 48 hrs by Western blot analysis; format: cell-based
T1 sequence (whole entry): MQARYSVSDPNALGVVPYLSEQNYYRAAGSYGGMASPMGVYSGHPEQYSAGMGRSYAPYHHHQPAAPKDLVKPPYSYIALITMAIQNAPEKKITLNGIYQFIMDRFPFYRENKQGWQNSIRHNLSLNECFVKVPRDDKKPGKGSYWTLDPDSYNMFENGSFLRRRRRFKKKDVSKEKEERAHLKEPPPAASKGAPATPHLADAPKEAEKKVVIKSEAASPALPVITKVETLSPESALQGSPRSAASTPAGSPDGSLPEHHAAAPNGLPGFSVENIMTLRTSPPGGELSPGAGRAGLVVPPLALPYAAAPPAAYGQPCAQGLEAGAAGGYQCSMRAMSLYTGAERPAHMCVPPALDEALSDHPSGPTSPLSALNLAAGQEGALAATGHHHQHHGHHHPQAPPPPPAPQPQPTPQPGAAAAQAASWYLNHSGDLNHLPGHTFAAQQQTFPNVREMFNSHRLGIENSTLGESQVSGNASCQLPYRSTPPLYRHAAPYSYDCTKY

PC-3 [4] = test: Inhibition of cancer stem cell activity in human PC-3 cells assessed as decrease in C-myc protein expression at 20 uM incubated for 48 hrs by Western blot analysis; format: functional, cell-based
PC-3 [5] = test: Inhibition of epithelial mesenchymal transition in human PC-3 cells assessed as downregulation of N-cadherin protein expression at 20 uM incubated for 48 hrs by Western blot analysis; format: functional, cell-based
DU-145 [6] = test: Inhibition of epithelial mesenchymal transition in human DU-145 cells assessed as upregulation of E-cadherin protein expression at 20 uM incubated for 48 hrs by Western blot analysis; format: functional, cell-based
LNCaP [7] = test: Antimetastatic activity in human LNCaP cells assessed as inhibition of cell invasion by measuring change in number of invading cells by transwell invasion assay; format: functional, cell-based
PC-3 [8] = test: Inhibition of epithelial mesenchymal transition in human PC-3 cells assessed as upregulation of ZO-1 protein expression at 20 uM incubated for 48 hrs by Western blot analysis; format: functional, cell-based
PC-3 [9] = test: Synergistic antiproliferative activity against human PC-3 cells assessed as reduction in cell viability incubated for 24 hrs in the presence of docetaxel by MTT assay; format: functional, cell-based
DU-145 [10] = test: Antiproliferative activity against human DU-145 cells assessed as reduction in cell viability by MTT assay; format: functional, cell-based
DU-145 [11] = test: Synergistic antiproliferative activity against human DU-145 cells assessed as combination index incubated for 24 hrs in the presence of enzalutamide by MTT assay; format: functional
PC-3 [12] = test: Inhibition of epithelial mesenchymal transition in human PC-3 cells assessed as downregulation of Vimentin protein expression at 20 uM incubated for 48 hrs by Western blot analysis; format: functional, cell-based
DU-145 [13] = test: Inhibition of cancer stem cell activity in human DU-145 cells assessed as decrease in KLF4 protein expression at 20 uM incubated for 48 hrs by Western blot analysis; format: functional, cell-based
PC-3 [14] = test: Effect on FOXC2 gene expression level in human PC-3 cells; format: functional, cell-based
PC-3 [15] = test: Inhibition of cancer stem cell activity in human PC-3 cells assessed as decrease in Nanog protein expression at 20 uM incubated for 48 hrs by Western blot analysis; format: functional, cell-based
DU-145 [16] = test: Synergistic antiproliferative activity against human DU-145 cells assessed as reduction in cell viability incubated for 24 hrs in the presence of docetaxel by MTT assay; format: functional, cell-based
DU-145 [17] = test: Inhibition of epithelial mesenchymal transition in human DU-145 cells assessed as downregulation of ZEBI protein expression at 20 uM incubated for 48 hrs by Western blot analysis; format: functional, cell-based
DU-145 [18] = test: Inhibition of cancer stem cell activity in human DU-145 cells assessed as decrease in Nanog protein expression at 20 uM incubated for 48 hrs by Western blot analysis; format: functional, cell-based
DU-145 [19] = test: Inhibition of cancer stem cell activity in human DU-145 cells assessed as decrease in C-myc protein expression at 20 uM incubated for 48 hrs by Western blot analysis; format: functional, cell-based
DU-145 [20] = test: Antimetastatic activity in human DU-145 cells assessed as inhibition of cell invasion at 20 uM incubated for 24 hrs by transwell invasion assay; format: functional, cell-based
DU-145 [21] = test: Inhibition of epithelial mesenchymal transition in human DU-145 cells assessed as downregulation of Slug protein expression at 20 uM incubated for 48 hrs by Western blot analysis; format: functional, cell-based
PC-3 [22] = test: Antimetastatic activity in human PC-3 cells assessed as inhibition of cell invasion at 20 uM incubated for 24 hrs by transwell invasion assay; format: functional, cell-based
PC-3 [23] = test: Inhibition of epithelial mesenchymal transition in human PC-3 cells assessed as downregulation of ZEBI protein expression at 20 uM incubated for 48 hrs by Western blot analysis; format: functional, cell-based
PC-3 [24] = test: Inhibition of epithelial mesenchymal transition in human PC-3 cells assessed as upregulation of E-cadherin protein expression at 20 uM incubated for 48 hrs by Western blot analysis; format: functional, cell-based
[25] = target: T1, Forkhead box protein C2 (Homo sapiens); test: Induction of FOXC2 degradation in human DU-145 cells assessed as decrease in FOXC2 protein level at 20 uM incubated for 48 hrs by Western blot analysis; format: cell-based
PC-3 [26] = test: Inhibition of cancer stem cell activity in human PC-3 cells assessed as decrease in KLF4 protein expression at 20 uM incubated for 48 hrs by Western blot analysis; format: functional, cell-based
DU-145 [27] = test: Inhibition of epithelial mesenchymal transition in human DU-145 cells assessed as upregulation of ZO-1 protein expression at 20 uM incubated for 48 hrs by Western blot analysis; format: functional, cell-based
DU-145 [28] = test: Effect on FOXC2 gene expression level in human DU-145 cells; format: functional, cell-based
DU-145 [29] = test: Inhibition of epithelial mesenchymal transition in human DU-145 cells assessed as downregulation of N-cadherin protein expression at 20 uM incubated for 48 hrs by Western blot analysis; format: functional, cell-based
DU-145 [30] = test: Inhibition of epithelial mesenchymal transition in human DU-145 cells assessed as downregulation of Vimentin protein expression at 20 uM incubated for 48 hrs by Western blot analysis; format: functional, cell-based
LNCaP [31] = test: Synergistic antiproliferative activity against human LNCaP cells assessed as inhibition of cell growth in presence of docetaxel by MTT assay; format: functional, cell-based
PC-3 [32] = test: Antiproliferative activity against human PC-3 cells assessed as reduction in cell viability by MTT assay; format: functional, cell-based

Activity [3]: Active | EC50 (DU-145 [10]): 48.1 µM | Activity [25]: Active | EC50 (PC-3 [32]): 53.2 µM
SMILES: N=C(N)NCCCCNc1nc(Nc2ccc(Oc3ccccc3)cc2)nc(N2CCN(c3nc(N)nc(Nc4ccc(N5CCOCC5)cc4)n3)CC2)n1
CI (PC-3 [1]): >1 | inhibition (PC-3 [2]): Active | inhibition (PC-3 [4]): Active | inhibition (PC-3 [5]): Active | inhibition (DU-145 [6]): Active | Activity (LNCaP [7]): inactive | inhibition (PC-3 [8]): Active | Activity (PC-3 [9]): Active | CI (DU-145 [11]): >1 | inhibition (PC-3 [12]): Active | inhibition (DU-145 [13]): Active | Activity (PC-3 [14]): inactive | inhibition (PC-3 [15]): Active | Activity (DU-145 [16]): Active | inhibition (DU-145 [17]): Active | inhibition (DU-145 [18]): Active | inhibition (DU-145 [19]): Active | Activity (DU-145 [20]): Active | inhibition (DU-145 [21]): Active | Activity (PC-3 [22]): Active | inhibition (PC-3 [23]): Active | inhibition (PC-3 [24]): Active | inhibition (PC-3 [26]): Active | inhibition (DU-145 [27]): Active | Activity (DU-145 [28]): inactive | inhibition (DU-145 [29]): Active | inhibition (DU-145 [30]): Active | Activity (LNCaP [31]): inactive

SMILES: CNC(=O)c1ccc(N2C(=S)N(c3ccc(C#N)c(C(F)(F)F)c3)C(=O)C2(C)C)cc1F
Activity (DU-145 [10]): inactive | Activity (PC-3 [32]): inactive

EC50 (DU-145 [10]): 0.00605 µM | EC50 (PC-3 [32]): 0.0076 µM
SMILES: CC(=O)O[C@@]12CO[C@@H]1C[C@H](O)[C@@]1(C)C(=O)[C@H](O)C3=C(C)[C@@H](OC(=O)[C@H](O)[C@@H](NC(=O)OC(C)(C)C)c4ccccc4)C[C@@](O)([C@@H](OC(=O)c4ccccc4)[C@H]21)C3(C)C [DOCETAXEL ANHYDROUS]
